Source: patent US9758492B2, “IDO inhibitors” (Bristol-Myers Squibb Company, priority 2013, dated 2017)

Biological target: IDO (Homo sapiens, UniProt P14902)
Test: LLE_IDO_ABS_DR (IDO assay)

Sequence of IDO (P14902 whole entry): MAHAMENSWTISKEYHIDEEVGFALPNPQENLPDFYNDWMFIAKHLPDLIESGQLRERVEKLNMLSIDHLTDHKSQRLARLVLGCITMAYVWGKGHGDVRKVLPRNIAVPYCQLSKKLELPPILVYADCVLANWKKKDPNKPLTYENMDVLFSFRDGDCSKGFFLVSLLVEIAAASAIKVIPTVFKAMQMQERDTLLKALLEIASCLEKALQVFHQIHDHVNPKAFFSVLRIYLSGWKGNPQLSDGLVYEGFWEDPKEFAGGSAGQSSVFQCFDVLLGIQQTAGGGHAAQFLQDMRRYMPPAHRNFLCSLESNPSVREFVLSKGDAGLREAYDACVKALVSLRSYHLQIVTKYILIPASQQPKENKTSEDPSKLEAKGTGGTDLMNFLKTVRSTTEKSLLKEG

| IC50 [nM] | Compound |
| --- | --- |
| 480 | Cc1ccc(NC(=O)Nc2cc(-c3cc(F)ccc3C(=O)O)ccc2N(CCC(C)C(F)(F)F)C2CCCCC2)cc1 (centres unmarked) [Example 189, 4′-(cyclohexyl(4,4,4-trifluoro-3-methylbutyl)amino)-5-fluoro-3′-(3-(p-tolyl)ureido)-[1,1′-biphenyl]-2-carboxylic acid] |
| 10 | Cc1ccc(NC(=O)Nc2cc(-c3ccccc3-c3nnn[nH]3)ccc2N(CC(C)C)C(C)C)cc1 [Example 147, 1-(4-(isobutyl(isopropyl)amino)-2′-(1H-tetrazol-5-yl)biphenyl-3-yl)-3-p-tolylurea] |
| 7.82 | COCCN(Cc1ccc(Cl)cc1)c1ccc(-c2ccccc2C(=O)O)cc1NC(=O)Nc1ccc(C)cc1 [Example 192, 4′-((4-chlorobenzyl)(2-methoxyethyl)amino)-3′-(3-(p-tolyl)ureido)-[1,1′-biphenyl]-2-carboxylic acid] |
| 9.3 | C#CCOc1ccc(NC(=O)Nc2cc(-c3ccccc3-c3nnn[nH]3)ccc2N(CC(C)C)CC(C)C)cc1 [Example 244] |
| 70 | CC(C)CN(CCC1CC1)c1ccc(-c2sccc2C(=O)O)cc1NC(=O)Nc1ccccc1F [Example 136, 2-(4-((2-cyclopropylethyl) (isobutyl)amino)-3-(3-(2-fluorophenyl)ureido)phenyl)thiophene-3-carboxylic acid] |
| 4620 | Cc1ccc(NC(=O)Nc2cc(-c3cnccc3C(=O)O)ccc2N(CC(C)C)CC(C)C)cc1 [Example 151, 3-(4-(diisobutylamino)-3-(3-p-tolylureido)phenyl) isonicotinic acid] |
| 4.36 | CC(C)CN(c1ccc(-c2ccccc2-c2nnn[nH]2)cc1NC(=O)Nc1ccccc1F)C1CCCC1 [Example 175, 1-(4-(cyclopentyl (isobutyl)amino)-2′-(1H-tetrazol-5-yl)biphenyl-3-yl)-3-(2-fluorophenyl)urea] |
| 120 | Cc1ccc(NC(=O)Nc2cc(-c3ccccc3-c3nnn[nH]3)ccc2N(CCC(F)(F)F)CC2CC2)cc1 [Example 63, 1-(4-((cyclopropylmethyl) (3,3,3-trifluoropropyl)amino)-2′-(1H-tetrazol-5-yl)biphenyl-3-yl)-3-p-tolylurea] |
| 4.16 | CCCN(c1ccc(-c2ccccc2C(=O)O)cc1NC(=O)Nc1ccc(C)cc1)C1CCCCC1 [Example 86, 4′-(cyclohexyl(propyl)amino)-3′-(3-p-tolylureido)biphenyl-2-carboxylic acid] |
| 2490 | CC(C)CN(CC(C)C)c1ccc(-c2ccccc2-c2nnn[nH]2)cc1NC(=O)Nc1cccc(-c2cnco2)c1 [Example 253, 1-(4-(diisobutylamino)-2′-(1H-tetrazol-5-yl)-[1,1′-biphenyl]-3-yl)-3-(3-(oxazol-5-yl)phenyl)urea] |
| 900 | O=C(Nc1ccc(OC(F)(F)F)cc1)Nc1cc(-c2ccccc2-c2nnn[nH]2)ccc1N1CCCc2ccccc21 [Example 363, 1-(4-(3,4-Dihydroquinolin-1(2H)-yl)-2′-(1H-tetrazol-5-yl)-[1,1′-biphenyl]-3-yl)-3-(4-(trifluoromethoxy)phenyl)urea] |
| 6.45 | CC(C)CN(CCC1CC1)c1ccc(-c2ccccc2-c2nnn[nH]2)cc1NC(=O)Nc1ccccc1F [Example 133, 1-(4-((2-cyclopropylethyl) (isobutyl)amino)-2′-(1H-tetrazol-5-yl)biphenyl-3-yl)-3-(2-fluorophenyl)urea] |
| 160 | C#Cc1ccccc1NC(=O)Nc1cc(-c2ccccc2-c2nnn[nH]2)ccc1N(CC(C)C)CC(C)C [Example 277, 1-(4-(diisobutylamino)-2′-(1H-tetrazol-5-yl)-[1,1′-biphenyl]-3-yl)-3-(2-ethynylphenyl)urea] |
| 80 | Cc1ccc(NC(=O)Nc2cc(-c3ccccc3-c3nnn[nH]3)ccc2N(CCC(C)C(F)(F)F)C2CCCCC2)cc1 (centres unmarked) [Example 190, 1-(4-(cyclohexyl(4,4,4-trifluoro-3-methylbutyl)amino)-2′-(1H-tetrazol-5-yl)-[1,1′-biphenyl]-3-yl)-3-(p-tolyl)urea] |
| 2390 | CC(C)CN(CC(C)C)c1ccc(-c2ccccc2-c2nnn[nH]2)cc1NC(=O)Nc1ccccc1OC(F)F [Example 280, 1-(2-(difluoromethoxy)phenyl)-3-(4-(diisobutylamino)-2′-(1H-tetrazol-5-yl)biphenyl-3-yl)urea] |
| 600 | Cc1ccc(NC(=O)Nc2cc(-c3ccccc3C(=O)O)ccc2Nc2ccccc2C(C)(C)C)cc1 [Example 206, 4′((2-(tert-butyl)phenyl)amino)-3′-(3-(p-tolyl)ureido)-[1,1′-biphenyl]-2-carboxylic acid] |
| 1840 | Cc1ccc(NC(=O)Nc2cc(-c3ccccc3C(=O)O)ccc2N(C)c2ccccc2C(C)(C)C)cc1 [Example 481] |
| 5770 | Cc1ccc(NC(=O)Nc2cc(-c3ccccc3NS(C)(=O)=O)ccc2N(CC(C)C)CC(C)C)cc1 [Example 74, N-(4′-(diisobutylamino)-3′-(3-p-tolylureido)biphenyl-2-yl) methanesulfonamide] |
| 4.47 | Cc1ccc(NC(=O)Nc2cc(-c3ccccc3-c3nnn[nH]3)ccc2N(CC(C)C)CC(C)C)cc1F [Example 287, 1-(4-(diisobutylamino)-2′-(1H-tetrazol-5-yl)-[1,1′-biphenyl]-3-yl)-3-(3-fluoro-4-methylphenyl)urea] |

| IC50 [nM] | Compound |
| --- | --- |
| 180 | CC(C)CN(CC(C)C)c1ccc(-c2ccccc2-c2nnn[nH]2)cc1NC(=O)Nc1cccc(OC(F)(F)F)c1 [Example 273, 1-(4-(diisobutylamino)-2′-(1H-tetrazol-5-yl)-[1,1′-biphenyl]-3-yl)-3-(3-(trifluoromethoxy)phenyl)urea] |
| 9370 | Cc1ccc(NC(=O)Nc2cc(-c3ccccc3C(=O)NS(=O)(=O)C(F)(F)F)ccc2N(CC(C)C)CC(C)C)cc1 [Example 234] |
| 30 | Cc1ccc(NC(=O)Nc2cc(-c3ccccc3-c3nnn[nH]3)ccc2N(CC2CC2)CC2CC2)cc1 [Example 66, 1-(4-(bis(cyclopropyl-methyl)amino)-2′-(1H-tetrazol-5-yl)biphenyl-3-yl)-3-p-tolylurea] |
| 260 | O=C(Nc1ccc(OC(F)(F)F)cc1)Nc1cc(-c2ccccc2-c2nnn[nH]2)ccc1N(CCC(F)(F)F)Cc1ccc(C(F)(F)F)cc1 [Example 327, 1-(2′-(1H-tetrazol-5-yl)-4-((4-(trifluoromethyl)benzyl)(3,3,3-trifluoropropyl)amino)-[1,1′-biphenyl]-3-yl)-3-(4-(trifluoromethoxy)phenyl)urea] |
| 4.03 | Cc1ccc(NC(=O)Nc2cc(-c3ccccc3-c3nnn[nH]3)ccc2N(Cc2ccccc2)CC(C)C)cc1 [Example 292, 1-(4-(benzyl(isobutyl)amino)-2′-(1H-tetrazol-5-yl)-[1,1′-biphenyl]-3-yl)-3-(p-tolyl)urea] |
| 430 | CC(C)CN(CC(C)C)c1ccc(-c2ccccc2-c2nnn[nH]2)cc1NC(=O)NCC(C)(C)C [Example 141, 1-(4-(diisobutylamino)-2′-(1H-tetrazol-5-yl)biphenyl-3-yl)-3-neopentylurea] |
| 30 | CCCN(c1ccc(-c2ccccc2C(=O)O)cc1NC(=O)Nc1ccccc1F)C1CCCC1 [Example 168, 4′-(cyclopentyl(propyl)amino)-3′-(3-(2-fluorophenyl)ureido) biphenyl-2-carboxylic acid] |
| 890 | Cc1ccccc1NC(=O)Nc1cc(-c2cccc(F)c2C(=O)O)ccc1N(CC(C)C)CC(C)C [Example 69, 4′-(diisobutylamino)-3-fluoro-3′-(3-o-tolylureido)biphenyl-2-carboxylic acid] |
| 8.81 | Cc1ccc(NC(=O)Nc2cc(-c3ccccc3-c3nnn[nH]3)ccc2N(C)C2CCC(F)(F)CC2)cc1 [Example 106, 1-(4-((4,4-difluoro-cyclohexyl) (methyl)amino)-2′-(1H-tetrazol-5-yl)biphenyl-3-yl)-3-p-tolylurea] |
| 140 | Cc1ccc(NC(=O)Nc2cc(-c3cc(F)ccc3C(=O)O)ccc2N(CC(C)C)CC(F)(F)F)cc1 [Example 476] |
| 4.76 | [2H]C([2H])(C(C)C)N(c1ccc(-c2ccccc2-c2nnn[nH]2)cc1NC(=O)Nc1ccc(C)cc1)C1CCCCC1 [Example 29, 1-(4-(Cyclohexyl(1,1-dideutero-2-methylpropyl)amino)-2′-(1H-tetrazol-5-yl)biphenyl-3-yl)-3-p-tolylurea] |
| 50 | Cc1ccc(NC(=O)Nc2cc(-c3ccccc3-c3nnn[nH]3)ccc2N(CC(C)C)CC(F)(F)F)cc1 [Example 475] |
| 80 | Cc1ccc(NC(=O)Nc2cc(-c3ccccc3C(=O)O)ccc2N(CC(C)C)CC2CC2)cc1 [Example 93, 4′-((cyclopropylmethyl) (isobutyl)amino)-3′-(3-p-tolylureido) biphenyl-2-carboxylic acid] |
| 20 | CCCN(c1ccc(-c2cc(F)ccc2C(=O)O)cc1NC(=O)Nc1ccc(C)cc1)C1CCCC1 [Example 166, 4′-(cyclopentyl(propyl)amino)-5-fluoro-3′-(3-p-tolylureido) biphenyl-2-carboxylic acid] |
| 250 | C#CCOc1ccccc1NC(=O)Nc1cc(-c2ccccc2-c2nnn[nH]2)ccc1N(CC(C)C)CC(C)C [Example 269, 1-(4-(diisobutylamino)-2′-(2H-tetrazol-5-yl)-[1,1′-biphenyl]-3-yl)-3-(2-(prop-2-yn-1-yloxy)phenyl)urea] |
| 150 | CCN(CCOC)c1ccc(-c2ccccc2-c2nnn[nH]2)cc1NC(=O)Nc1ccc(C)cc1 [Example 73, 1-(4-(ethyl(2-methoxyethyl)amino)-2′-(1H-tetrazol-5-yl)biphenyl-3-yl)-3-p-tolylurea] |
| 4490 | CC(C)CN(CC(C)C)c1ccc(-c2ccccc2-c2nnn[nH]2)cc1NC(=O)Nc1cccc(S(N)(=O)=O)c1 [Example 266, 3-(3-(4-(diisobutylamino)-2′-(1H-tetrazol-5-yl)-[1,1′-biphenyl]-3-yl)ureido) benzenesulfonamide] |
| 1330 | O=C(Nc1cc(-c2ccccc2-c2nnn[nH]2)ccc1N(CCC(F)(F)F)Cc1ccc(F)cc1)Nc1ccccc1C(F)(F)F [Example 326, 1-(4-((4-fluorobenzyl)(3,3,3-trifluoropropyl)amino)-2′-(1H-tetrazol-5-yl)-[1,1′-biphenyl]-3-yl)-3-(2-(trifluoromethyl)phenyl)urea] |
| 3800 | CN(c1ccc(-c2cc(F)ccc2C(=O)O)cc1NC(=O)Nc1ccccc1F)c1ccccc1C(C)(C)C [Example 479] |
